{"source": "patent US20100105651A1", "about": "“ANTAGONISTS OF SNS SODIUM CHANNELS” (priority 2005, published 2010)", "molecular_target": "T1, human NaV1.8 (hNaV1.8) ion channel (Homo sapiens, UniProt Q9Y5Y9)", "T1 construct": "expressed in transfected cells", "T1 sequence (Q9Y5Y9 whole entry)": "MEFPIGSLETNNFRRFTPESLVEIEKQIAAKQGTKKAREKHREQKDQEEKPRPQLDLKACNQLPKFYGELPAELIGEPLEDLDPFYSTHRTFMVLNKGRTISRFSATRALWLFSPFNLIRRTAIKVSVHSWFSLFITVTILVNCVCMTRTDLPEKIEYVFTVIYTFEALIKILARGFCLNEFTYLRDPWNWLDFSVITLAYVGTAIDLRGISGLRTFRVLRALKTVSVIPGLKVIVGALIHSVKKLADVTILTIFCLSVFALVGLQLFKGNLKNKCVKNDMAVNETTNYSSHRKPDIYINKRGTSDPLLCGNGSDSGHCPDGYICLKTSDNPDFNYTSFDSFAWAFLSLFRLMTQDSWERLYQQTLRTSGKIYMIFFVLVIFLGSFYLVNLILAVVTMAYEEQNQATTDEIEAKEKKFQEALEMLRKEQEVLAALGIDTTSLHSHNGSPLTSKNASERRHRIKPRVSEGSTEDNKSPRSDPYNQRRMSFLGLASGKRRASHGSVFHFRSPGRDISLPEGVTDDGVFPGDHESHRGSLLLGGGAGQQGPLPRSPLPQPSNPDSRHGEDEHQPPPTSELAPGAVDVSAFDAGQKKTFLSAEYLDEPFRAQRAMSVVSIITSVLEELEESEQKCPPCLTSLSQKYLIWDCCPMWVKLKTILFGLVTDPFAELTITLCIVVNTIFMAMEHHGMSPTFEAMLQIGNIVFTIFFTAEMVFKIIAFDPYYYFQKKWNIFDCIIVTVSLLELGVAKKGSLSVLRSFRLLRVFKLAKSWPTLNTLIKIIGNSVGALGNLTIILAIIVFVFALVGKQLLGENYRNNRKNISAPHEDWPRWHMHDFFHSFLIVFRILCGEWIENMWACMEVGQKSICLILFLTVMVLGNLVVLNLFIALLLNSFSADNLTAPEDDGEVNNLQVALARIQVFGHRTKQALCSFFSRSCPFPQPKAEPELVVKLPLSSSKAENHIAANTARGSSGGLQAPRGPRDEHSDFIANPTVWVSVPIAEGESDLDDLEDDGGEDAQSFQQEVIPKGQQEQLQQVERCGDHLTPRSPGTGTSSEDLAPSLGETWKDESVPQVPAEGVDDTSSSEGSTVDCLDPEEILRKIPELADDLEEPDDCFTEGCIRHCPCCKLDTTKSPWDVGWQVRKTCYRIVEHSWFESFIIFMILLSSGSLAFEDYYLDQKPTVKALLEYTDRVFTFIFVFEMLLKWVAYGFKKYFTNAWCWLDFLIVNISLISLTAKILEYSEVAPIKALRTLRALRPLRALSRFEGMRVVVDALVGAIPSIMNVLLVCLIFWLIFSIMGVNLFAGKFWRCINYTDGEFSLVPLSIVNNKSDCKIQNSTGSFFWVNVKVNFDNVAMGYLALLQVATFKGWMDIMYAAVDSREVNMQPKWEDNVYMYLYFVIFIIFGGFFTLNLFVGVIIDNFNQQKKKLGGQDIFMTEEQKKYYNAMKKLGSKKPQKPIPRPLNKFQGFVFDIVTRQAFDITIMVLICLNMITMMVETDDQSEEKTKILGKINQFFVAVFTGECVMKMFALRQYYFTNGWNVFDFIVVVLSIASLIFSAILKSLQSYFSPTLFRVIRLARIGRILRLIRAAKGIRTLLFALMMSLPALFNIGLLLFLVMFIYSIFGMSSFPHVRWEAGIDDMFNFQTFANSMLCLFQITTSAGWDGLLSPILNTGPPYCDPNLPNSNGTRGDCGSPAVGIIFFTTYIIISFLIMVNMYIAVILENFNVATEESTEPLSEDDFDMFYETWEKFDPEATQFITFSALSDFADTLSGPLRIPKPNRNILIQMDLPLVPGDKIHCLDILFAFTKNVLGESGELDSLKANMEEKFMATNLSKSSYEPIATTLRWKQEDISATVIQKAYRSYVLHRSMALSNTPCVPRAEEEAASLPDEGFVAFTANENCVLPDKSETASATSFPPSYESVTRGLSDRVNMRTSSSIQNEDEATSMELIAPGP", "assay": "Inhibition of Human NaV1.8 stably expressed in SH-SY-5Y cells (membrane potential dye fluorescence assay)", "format": "cell-based", "details": "FLIPR membrane potential dye, 10 μM pyrethroid, 250 nM TTX, test range 100 μM-0.05 μM", "method": "Inhibition of Human NaV1.8 stably expressed in SH-SY-5Y cells\nA SH-SY-5Y neuroblastoma cell line stably expressing the human NaV1.8 (hNaV1.8) ion channel was constructed. This cell line has been used to develop a medium to high throughput assay for determining the ability of test compounds to inhibit membrane depolarisation mediated via the hNaV1.8 channel.\nSH-SY-5Y hNaV1.8 are grown in adherent monolayer culture using 50:50 Ham's F-12/EMEM tissue culture medium supplemented with 15% (v/v) foetal bovine serum; 2 mM L-glutamine, 1% NEAA and 600 μg·ml^−1 Geneticin sulphate. Cells are removed from the tissue culture flask using trypsin/EDTA and re-plated into black walled, clear bottom 96-well assay plates at 50,000 cells·well^−1 24 hours prior to assay.\nOn the day of assay the cell assay plates are washed to remove cell culture medium using a sodium free assay buffer (145 mM tetramethyl ammonium chloride; 2 mM calcium chloride; 0.8 mM magnesium chloride hexahydrate; 10 mM HEPES; 10 mM glucose; 5 mM potassium chloride, pH 7.4). Fluorescent membrane potential dye solution (FLIPR™ membrane potential dye, Molecular Devices Corporation), containing 10 μM of a pyrethroid to prevent channel inactivation and 250 nM tetrodotoxin (TTX) to reduce interference from TTX-sensitive sodium channels present in the cell line. Test compound, initially dissolved in dimethyl sulfoxide but further diluted in sodium free buffer, is added to achieve the final test concentration range of 100 μM-0.05 μM.\nCell plates are incubated for 30 minutes at room temperature to allow equilibration of dye and test compound. Plates are then transferred to a fluorescence plate reader for fluorescence measurement using an excitation wavelength of 530 nm whilst measuring fluorescence emission at 565 nm. […] Membrane depolarisation is registered by an increase in fluorescence emission at 565 nm.\nThe change in fluorescence seen in each test well upon the addition of sodium containing buffer is calculated relative to the baseline fluorescence for that well. This figure is then used for calculating the IC50 for each test compound.", "key": {"[1]": {"details": "SH-SY-5Y cells stably expressing hNaV1.8, read-out: hNav1.8 IC50"}}, "note": "pIC50: −log10 of the molar value. Where two headings read alike, the source gives them in different places."}
{"smiles": "Cc1ccccc1CC(C)NC1CN(C(=O)NC(C)c2ccc(C(F)(F)F)cc2)C1", "note": "(stereo not drawn) [Example 1, 3-(1-Methyl-2-o-tolyl-ethylamino)-azetidine-1-carboxylic acid [1-(4-trifluoromethyl-phenyl)-ethyl]-amide]", "values": [{"measurement": "pIC50", "setting": "hNav1.8 IC50, SH-SY-5Y cells stably expressing hNaV1.8", "result": 5.89}]}
{"smiles": "CC(NC1CN(C(=O)NC(c2ccc(F)cc2)c2ccc(F)cc2)C1)c1ccc(F)cc1", "note": "(stereo not drawn) [Example 2, 3-[1-(4-Fluoro-phenyl)-ethylamino]-azetidine-1-carboxylic acid [bis-(4-fluoro-phenyl)-methyl]-amide]", "values": [{"measurement": "pIC50", "setting": "[1]", "result": 5.58}]}
{"smiles": "CC(NC(=O)N1CC(NC2Cc3ccccc3C2)C1)c1ccc(C(F)(F)F)cc1", "note": "(stereo not drawn) [Example 3, 3-(Indan-2-ylamino)-azetidine-1-carboxylic acid [1-(4-trifluoromethyl-phenyl)-ethyl]-amide]", "values": [{"measurement": "pIC50", "setting": "[1]", "result": 5.53}]}
{"smiles": "CC(NC(=O)N1CC(NC2CCc3ccccc3C2)C1)c1ccc(C(F)(F)F)cc1", "note": "(stereo not drawn) [Example 4, 3-(1,2,3,4-Tetrahydro-naphthalen-2-ylamino)-azetidine-1-carboxylic acid [1-(4-trifluoromethyl-phenyl)-ethyl]-amide]", "values": [{"measurement": "pIC50", "setting": "[1]", "result": 5.48}]}
{"smiles": "CC(NC(=O)N1CC(NC2CCc3cc(F)ccc3C2)C1)c1ccc(C(F)(F)F)cc1", "note": "(stereo not drawn) [Example 5, 3-(6-Fluoro-1,2,3,4-tetrahydro-naphthalen-2-ylamino)-azetidine-1-carboxylic acid [1-(4-trifluoromethyl-phenyl)-ethyl]-amide]", "values": [{"measurement": "pIC50", "setting": "[1]", "result": 5.76}]}
{"smiles": "CCCCOc1ccc(NC(=O)N2CC(NC3CCc4cc(F)ccc43)C2)cc1", "note": "(stereo not drawn) [Example 6, 3-(5-Fluoro-indan-1-ylamino)-azetidine-1-carboxylic acid (4-butoxy-phenyl)-amide]", "values": [{"measurement": "pIC50", "setting": "[1]", "result": 5.92}]}
{"smiles": "O=C(Nc1ccc(Oc2ccc(F)cc2)cc1)N1CC(NC2CCc3cc(F)ccc32)C1", "note": "(stereo not drawn) [Example 7, 3-(5-Fluoro-indan-1-ylamino)-azetidine-1-carboxylic acid [4-(4-fluoro-phenoxy)-phenyl]-amide]", "values": [{"measurement": "pIC50", "setting": "[1]", "result": 6.60}]}
{"smiles": "O=C(Nc1ccc(Oc2ccc(F)cc2)cc1)N1CC(NC2CCc3cc(F)ccc3C2)C1", "note": "(stereo not drawn) [Example 8, 3-(6-Fluoro-1,2,3,4-tetrahydro-naphthalen-2-ylamino)-azetidine-1-carboxylic acid [4-(4-fluoro-phenoxy)-phenyl]-amide]", "values": [{"measurement": "pIC50", "setting": "[1]", "result": 6.51}]}
{"smiles": "O=C(Nc1ccc(Oc2ccc(F)cc2)c(F)c1)N1CC(NC2CCc3cc(F)ccc32)C1", "note": "(stereo not drawn) [Example 11, 3-(5-Fluoro-indan-1-ylamino)-azetidine-1-carboxylic acid [3-fluoro-4-(4-fluoro-phenoxy)-phenyl]-amide]", "values": [{"measurement": "pIC50", "setting": "[1]", "result": 6.34}]}
{"smiles": "O=C(Nc1ccc(Oc2ccc(F)cc2)cc1)N1CC(NC2CCc3cc(O)ccc32)C1", "note": "(stereo not drawn) [Example 12, 3-(5-Hydroxy-indan-1-ylamino)-azetidine-1-carboxylic acid [4-(4-fluoro-phenoxy)-phenyl]-amide]", "values": [{"measurement": "pIC50", "setting": "[1]", "result": 5.87}]}
{"smiles": "O=C(Nc1ccc(Oc2cccc(F)c2)cc1)N1CC(NC2CCc3cc(F)ccc32)C1", "note": "(stereo not drawn) [Example 13, 3-(5-Fluoro-indan-1-ylamino)-azetidine-1-carboxylic acid [4-(3-fluoro-phenoxy)-phenyl]-amide]", "values": [{"measurement": "pIC50", "setting": "[1]", "result": 6.51}]}
{"smiles": "O=C(Nc1ccc(Oc2ccccc2F)cc1)N1CC(NC2CCc3cc(F)ccc32)C1", "note": "(stereo not drawn) [Example 14, 3-(5-Fluoro-indan-1-ylamino)-azetidine-1-carboxylic acid [4-(2-fluoro-phenoxy)-phenyl]-amide]", "values": [{"measurement": "pIC50", "setting": "[1]", "result": 6.27}]}
{"smiles": "O=C(Nc1ccc(Oc2ccc(F)cc2)c(F)c1)N1CC(NC2CCc3cc(Cl)ccc32)C1", "note": "(stereo not drawn) [Example 15, 3-(5-Chloro-indan-1-ylamino)-azetidine-1-carboxylic acid [3-fluoro-4-(4-fluoro-phenoxy)-phenyl]-amide]", "values": [{"measurement": "pIC50", "setting": "[1]", "result": 6.19}]}
{"smiles": "O=C(Nc1ccc(Oc2ccc(F)cc2)c(F)c1)N1CC(NC2CCc3cc(Br)ccc32)C1", "note": "(stereo not drawn) [Example 16, 3-(5-Bromo-indan-1-ylamino)-azetidine-1-carboxylic acid [3-fluoro-4-(4-fluoro-phenoxy)-phenyl]-amide]", "values": [{"measurement": "pIC50", "setting": "[1]", "result": 5.76}]}
{"smiles": "O=C(Nc1ccc(Oc2ccc(F)cc2)cc1)N1CC(NC2CCc3cc(Br)ccc32)C1", "note": "(stereo not drawn) [Example 17, 3-(5-Bromo-indan-1-ylamino)-azetidine-1-carboxylic acid [4-(4-fluoro-phenoxy)-phenyl]-amide]", "values": [{"measurement": "pIC50", "setting": "[1]", "result": 6.27}]}
